{"source": "ChEMBL document CHEMBL3045067", "about": "“-Amino butyric acid analogs as novel potent GABA-AT inhibitors: molecular docking, synthesis, and biological evaluation” (Med Chem Res, 2013)", "data": [{"molecular_target": "4-aminobutyrate aminotransferase, mitochondrial (Rattus norvegicus, UniProt P50554)", "sequence (P50554 whole entry)": "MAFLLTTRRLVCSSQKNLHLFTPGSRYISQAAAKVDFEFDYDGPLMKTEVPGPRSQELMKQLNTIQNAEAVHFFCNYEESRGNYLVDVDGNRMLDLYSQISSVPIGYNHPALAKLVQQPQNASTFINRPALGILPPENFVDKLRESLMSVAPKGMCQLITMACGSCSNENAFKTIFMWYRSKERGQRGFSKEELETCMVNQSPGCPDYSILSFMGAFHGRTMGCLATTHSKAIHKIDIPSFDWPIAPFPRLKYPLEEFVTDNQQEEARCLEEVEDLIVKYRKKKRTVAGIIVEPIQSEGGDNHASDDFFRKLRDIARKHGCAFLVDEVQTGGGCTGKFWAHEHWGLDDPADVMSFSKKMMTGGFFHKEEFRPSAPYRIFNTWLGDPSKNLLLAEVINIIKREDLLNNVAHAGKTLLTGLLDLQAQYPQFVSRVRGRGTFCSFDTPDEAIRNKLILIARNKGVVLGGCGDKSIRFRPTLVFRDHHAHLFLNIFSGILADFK", "experiment": "Inhibition of Rattus norvegicus (rat) brain gamma-amino butyrate aminotransferase using gamma-amino butyrate as substrate assessed as decrease in NADPH generation after 30 min by spectrophotometric analysis", "units": {"IC50": "µM"}, "values": [{"smiles": "NCCCC(=O)N/N=C1\\CCCc2ccccc21", "IC50": 0.28}, {"smiles": "NCCCC(=O)N/N=C(\\c1ccccc1)c1ccc(Br)cc1", "IC50": 0.56}, {"smiles": "Nc1cccc(C(=O)N/N=C2/c3ccccc3C(=O)c3ccc(Cl)cc32)c1", "IC50": 0.46}, {"smiles": "O=C(O)c1cccc(N=C2c3ccccc3C(=O)c3ccccc32)c1", "IC50": 4.96}, {"smiles": "CC1=C/C(=N/CCCC(=O)O)CC(C)(C)C1", "IC50": 25.9}, {"smiles": "CCc1ccc2c(c1)/C(=N/c1cccc(C(=O)O)c1)c1ccccc1C2=O", "IC50": 1.21}, {"smiles": "NCCCC(=O)N/N=C/c1ccccc1I", "IC50": 0.2}, {"smiles": "C/C(=N/NC(=O)CCCN)c1cccc(Cl)c1", "IC50": 0.091}, {"smiles": "Nc1cccc(C(=O)N/N=C2/c3ccccc3C(=O)c3ccc(O)c(O)c32)c1", "IC50": 0.24}, {"smiles": "C/C(=N/NC(=O)CCCN)c1ccccc1Br", "IC50": 0.073}, {"smiles": "NCCCC(=O)NN=C1c2ccccc2C(=O)c2ccccc21", "IC50": 0.14}, {"smiles": "O=C(O)CCC/N=C1/C(=O)c2ccccc2-c2ccccc21", "IC50": 15.5}, {"smiles": "O=C(O)c1cccc(/N=C2\\C(=O)c3ccccc3-c3ccccc32)c1", "IC50": 2.78}, {"smiles": "Cc1ccc2c(c1)/C(=N\\NC(=O)CCCN)c1ccccc1C2=O", "IC50": 0.11}, {"smiles": "O=C(O)CCC/N=C1/C(=O)c2cccc3cccc1c23", "IC50": 16.8}, {"smiles": "NCCCC(=O)N/N=C1\\CCc2ccccc2C1", "IC50": 0.13}, {"smiles": "NCCCC(=O)N/N=C(/C(=O)c1ccccc1)c1ccccc1", "IC50": 0.3}, {"smiles": "CC1=CC(=O)C=C/C1=N\\CCCC(=O)O", "IC50": 30.1}, {"smiles": "C=C(C)C1CC=C(C)/C(=N/CCCC(=O)O)C1", "note": "(stereo not drawn)", "IC50": 23.5}, {"smiles": "NCCCC(=O)N/N=C/c1cccc(I)c1", "IC50": 0.15}, {"smiles": "CC12CCC(C1)C(C)(C)/C2=N\\CCCC(=O)O", "note": "(stereo not drawn)", "IC50": 10}, {"smiles": "O=C(O)CCCN=C(/C=C/c1ccccc1)/C=C/c1ccccc1", "IC50": 9.95}, {"smiles": "C/C(=N\\CCCC(=O)O)c1ccc2ccccc2c1", "IC50": 44.1}, {"smiles": "C/C(=N/NC(=O)c1cccc(N)c1)c1cccc(Cl)c1", "IC50": 0.32}, {"smiles": "CC1CCC(C(C)C)/C(=N/CCCC(=O)O)C1", "note": "(stereo not drawn)", "IC50": 20.8}, {"smiles": "CC1=C(C)C(=Nc2cccc(C(=O)O)c2)C(C)=C(C)C1=O", "IC50": 6.54}, {"smiles": "Nc1cccc(C(=O)N/N=C(/c2ccccc2)c2ccc(Cl)cc2)c1", "IC50": 0.37}, {"smiles": "CC1CCCC/C1=N\\CCCC(=O)O", "note": "(stereo not drawn)", "IC50": 20.8}]}]}
